{
  "source": "patent US10577322B2",
  "about": "“5-methoxytryptophan and its derivatives and uses thereof” (National Health Research Institutes, priority 2015, dated 2020)",
  "key": {"[1]": {"test_system": "BT474 breast cancer cells", "experiment": "Transwell cell migration assay, BT474", "type": "cell-based", "conditions": "30 min pretreatment, PMA 4 h or 24 h", "description": "(§1) Briefly, cells (10^4/well) were seeded on the upper chamber (6.5-mm insert, 8-μm polycarbonate membrane; Corning Inc.), which was placed in each well of a 24-well plate. The lower chamber was filled with 700 μL DMEM supplemented with 10% FBS. For assessment of in vitro invasion, cells were seeded onto the upper chamber insert coated with Matrigel (BD Biosciences) under the same conditions as the transwell migration assays. At the indicated time, nonmigrated cells that remained at the top surface of the insert were removed with a cotton swab. Cells that migrated to the lower membrane surface and cells that invaded through the matrigel gel to the underside of the membrane were fixed, stained with 0.1% crystal violet for 20 min, and counted under light microscopy. All of the assays were done in triplicate with excellent reproducibility.\n(§2) Lung cancer A549 and breast cancers BT474 and T47D cells were pretreated with different concentrations of 5-MTP or 5-MTPE for 30 min, then stimulated with PMA for 4 h or 24 h. Cell migration was measured by the transwell migration assay."}, "IL-6": {"test_system": "IL-6", "experiment": "LPS-induced IL-6 level in RAW264.7 culture supernatants (ELISA)", "type": "cell-based, mouse", "conditions": "RAW264.7 cells; for LPS-induced IL-6 level in culture supernatants: 30 min pretreatment, LPS 24 h", "description": "Mouse RAW264.7 macrophages were from the American Type Culture Collection and cultured in DMEM containing 10% FBS. […] The duration of LPS (100 ng/ml) treatment varied depending on the experiment.\nMoreover, RAW264.7 cells and IL-6 promoter-luciferase plasmid transfected RAW264.7 cells were pretreated with different concentrations of 5-MTP for 30 min, followed by LPS stimulation for 8 h. IL-6 promoter activity was measured by luciferase assay. IL-6 level in culture supernatants was measured by ELISA.\nFurthermore, RAW264.7 cells were treated with different concentrations of 5-MTP or 5-MTPE for 24 h. Cell viability was determined by MTT assay. In another experiment, after pretreating RAW264.7 cells with different concentrations of 5-MTP or 5-MTPE for 30 min, cells were stimulated with LPS for 24 h. IL-6 level in culture supernatants was measured by ELISA.\n(§3) Herein, after pretreating RAW264.7 cells with different concentrations of 5-MTP, 5-MTPE, COX-2 inhibitors (NSC398 or SC560) and NF-κB inhibitor JSH-23 for 30 min, cells were stimulated with LPS. In addition, RAW264.7 cells were also transfected with COX-2 promoter-luciferase plasmid. After 24 h transfection, the cells were incubated with LPS for 8 h. Luciferase activity as measured."}, "T47D breast cancer cells": {"test_system": "T47D breast cancer cells", "experiment": "Transwell cell migration assay, T47D", "type": "cell-based", "conditions": "30 min pretreatment, PMA 4 h or 24 h", "description": "as §1, §2"}, "A549 lung cancer cells": {"test_system": "A549 lung cancer cells", "experiment": "Transwell cell migration assay, A549", "type": "cell-based", "conditions": "30 min pretreatment, PMA 4 h or 24 h", "description": "as §1, §2"}, "COX-2": {"test_system": "COX-2", "experiment": "PMA-induced COX-2 expression in A549 cells (immunoblot)", "type": "cell-based", "conditions": "for PMA-induced COX-2 protein expression: 30 min pretreatment, PMA 8 h", "description": "Cellular protein were resolved by 5% to 20% SDS-PAGE and transferred to nitrocellulose membranes and blotted with specific antibodies as previously described (Lee, G. L., et al.).\nAfter pretreating A549 cells with different concentrations of 5-MTP, 5-MTPE and NACT-5-MTP for 30 min, cells were stimulated with PMA for 8 h. Cell lysates were immunoblotted with antibodies for COX-2 or β-actin."}, "A549 subcutaneous tumor": {"test_system": "A549 subcutaneous tumor", "experiment": "Tumor xenograft experiment (A549 s.c. in SCID mice)", "type": "in vivo", "conditions": "100 mg/kg intraperitoneal twice weekly; for subcutaneous tumor volume: 7 weeks", "description": "Six-week-old male CB-17 SCID mice, purchased from BioLASCO, were housed in a daily cycle of 12-h light and 12-h darkness and pathogen-free conditions at 26° C. at the Animal Center of the National Health Research Institutes. A549-luc-C8 cells (Caliper Life Sciences), cultured in RPMI-1640 supplemented with 10% FBS, were pretreated with 100 μM 5-MTP, 100 μM 5-MTPE or vehicle for 5 h and were inoculated into the flank of mice subcutaneously (s.c.) (5×10^6 cells/mouse). The 5-MTP-, or 5-MTPE-treated mice (n=10) were injected with 100 mg 5-MTP or 5-MTPE /kg body weight intraperitoneally twice weekly. The vehicle group (n=10) was injected with vehicle (0.033 N HCl in RPMI medium, neutralized with NaOH) twice weekly. The size of s.c. tumors were caliper-measured twice weekly. The tumor volume was calculated according to the formula of length×width×width/2. The tumor growth was also monitored weekly by an IVIS spectrum imaging system. Mice were euthanized at day 52. Subcutaneous tumors and lungs were removed and fixed with 10% Formalin. Nodules on each lobe of the lungs were counted. Histology of the nodules was examined under microscopy by tissue section and H&E staining. The animals' care was in accordance with institutional guidelines and the protocol of in vivo experiments was approved by the Institutional Animal Care and Utilization Committee of the National Health Research Institutes.\nIn addition, A549 (5×10^6 cells) was injected subcutaneously into the flank of SCID-Beige mice. 10 mice each received intraperitoneal injection of 5-MTP (100 mg/kg), 5-MTPE (100 mg/kg) or vehicle twice weekly. Caliper measurement of the subcutaneous tumor volume periodically for 7 weeks. […] The average tumor volume at 7-week in the 5-MTP treated group was ˜50% of that in the control group."}, "COX-2 promoter": {"test_system": "COX-2 promoter", "experiment": "COX-2 promoter-luciferase assay in RAW264.7 cells", "type": "cell-based, mouse", "conditions": "for LPS-induced COX-2 promoter activity (luciferase): LPS 8 h", "description": "RAW264.7 macrophages were cotransfected with COX-2 promoter-luciferase, IL-6 promoter-luciferase constructs as previously described (Lee, G. L., et al.) or p5xNF-κB-luciferase (Stratagene) and pcDNA3.1-β-galactosidase plasmids using FuGENE 6 (Roche). After overnight transfection, the cells were incubated with or without LPS in the presence or absence of 5-MTP for 8 h. After treatment, cells were lysed, and luciferase activity was measured using an assay kit (Promega). β-galactosidase activity was used to normalize the data.\nAfter pretreating mouse macrophage RAW264.7 cells with different concentrations of 5-MTP for 30 min, cells were stimulated with LPS for 8 h. Cell lysates were immunoblotted with antibodies for COX-2 or β-actin. In addition, RAW264.7 cells were transfected with COX-2 promoter-luciferase plasmid. After 24 h transfection, the cells were incubated with LPS for 8 h. Luciferase activity was measured. The experiments were repeated 3 times with similar results. The results shown in FIGS. 3A-3B confirmed that 5-MTP blocked LPS-induced COX-2 protein expression and promoter activity in a concentration-dependent manner in RAW264.7 cells.\nas §3"}},
  "data": [
    {"compound": "COc1ccc2[nH]cc(C[C@H](N)C(=O)O)c2c1", "note": "[5-MTP, 5-methoxytryptophan]", "values": [
      {"measurement": "PMA-induced BT474 cell migration", "setting": "[1]", "result": "abrogated"},
      {"measurement": "LPS-induced IL-6 level in culture supernatants", "setting": "IL-6", "result": "dose-dependently blocked"},
      {"measurement": "LPS-induced IL-6 protein expression", "setting": "IL-6; LPS 8 h", "result": "inhibited"},
      {"measurement": "PMA-induced T47D cell migration", "setting": "T47D breast cancer cells", "result": "abrogated"},
      {"measurement": "PMA-induced A549 cell migration", "setting": "A549 lung cancer cells", "result": "abrogated"},
      {"measurement": "PMA-induced COX-2 protein expression", "setting": "COX-2", "result": "suppress"},
      {"measurement": "average tumor volume at 7-week, of that in the control group", "setting": "A549 subcutaneous tumor", "result": "~50", "unit": "%"},
      {"measurement": "subcutaneous tumor volume", "setting": "A549 subcutaneous tumor", "result": "suppressed tumor volume in a time-dependent manner"},
      {"measurement": "LPS-induced COX-2 promoter activity (luciferase)", "setting": "COX-2 promoter", "result": "dose-dependently blocked"}
    ]},
    {"compound": "COC(=O)C(N)Cc1c[nH]c2ccc(OC)cc12", "note": "(stereo not drawn) [5-MTPE, ester-5-MTP]", "values": [
      {"measurement": "PMA-induced BT474 cell migration", "setting": "[1]", "result": "abrogated"},
      {"measurement": "LPS-induced IL-6 level in culture supernatants", "setting": "IL-6", "result": "significantly inhibited"},
      {"measurement": "LPS-induced IL-6 level in culture supernatants", "setting": "IL-6; listed as 5MTPE", "result": "dose-dependently blocked"},
      {"measurement": "suppressive capacity on IL-6 production in comparison with 5-MTP, COX-2 inhibitors", "setting": "IL-6; 24 h after LPS", "result": "better suppressive capacity"},
      {"measurement": "IL-6 suppressive activity compared with JSH-23", "setting": "IL-6; LPS", "result": "potent than that of NF-κB inhibitor JSH-23"},
      {"measurement": "PMA-induced T47D cell migration", "setting": "T47D breast cancer cells", "result": "abrogated"},
      {"measurement": "PMA-induced A549 cell migration", "setting": "A549 lung cancer cells", "result": "abrogated"},
      {"measurement": "PMA-induced COX-2 protein expression", "setting": "COX-2", "result": "dose-dependently blocked"},
      {"measurement": "COX-2 suppressive activity compared with 5-MTP", "setting": "COX-2; PMA", "result": "potent than that of 5-MTP"},
      {"measurement": "subcutaneous tumor volume", "setting": "A549 subcutaneous tumor", "result": "suppressed tumor volume in a time-dependent manner"},
      {"measurement": "COX-2 suppressive activity compared with JSH-23", "setting": "COX-2 promoter; LPS", "result": "potent than that of NF-κB inhibitor JSH-23"},
      {"measurement": "LPS-induced COX-2 promoter activity (luciferase)", "setting": "COX-2 promoter", "result": "dose-dependently blocked"}
    ]}
  ]
}
